Measured values: patent US20210299134A1, “TREATMENT OF B CELL MALIGNANCIES” (MEI Pharma, Inc., priority 2018, published 2021)
Marks after values point to notes of the source that are not given here.

Key:
[1] = test system: patients with FL or CLL/SLL; assay: Phase 1b study: adverse events of special interest (AESI) on IS or CS; format: in vivo, human
Source text: In some instances, severe cases of enterocolitis, rash, and transaminitis have been reported in a Phase 1b clinical study of Compound A35 in patients with B-cell malignancies. In some instances, the onset of severe immune-related toxicities were reported after a period of CS dosing greater than 2 cycles. A lymphocytic infiltrate was reported in biopsies obtained from 1 patient with colitis and 1 patient with severe skin rash enrolled in the study. Furthermore, corticosteroid therapy has been reported as effective treatment approach in patients who developed diarrhea and rash in the study.
Following reports of delayed onset of cases of enterocolitis and rash in patients with Compound A35 initially administered once a day on a continuous dosing schedule (CS) in a 28-day cycle, an alternate dosing regimen using an intermittent dosing schedule (IS) was evaluated. The hypothesis was that an IS of PI3K5 inhibitors including Compound A35 could reduce the incidence or lower the severity of immune mediated adverse events (irAEs) by allowing recovery of TREGs during treatment-free intervals. Furthermore, it was hypothesized that the IS, by delivering a lower dose-intensity treatment approach, could be used to re-treat patients who have experienced delayed irAEs on the CS or IS and had recovered following treatment interruption and a short course of corticosteroids.
An intermittent dosing schedule on days 1-7 of a 28-day cycle was then evaluated after 2 cycles of daily dosing, or ≥3 cycles of daily dosing to reduce the risk of immune-related adverse events. For this analysis the intermittent schedule (IS) group is defined as patients who received Compound A35 alone or with rituximab daily for 2 cycles then switched to an intermittent schedule of 1 week per cycle, and the continuous schedule (CS) group is defined as patients who never switched to intermittent dosing or switched to intermittent dosing in cycle 4 or later cycles. Toxicity on CS is managed by a switch to IS.
The IS was developed to mitigate the risk of delayed toxicities observed with PI3K inhibitors and believed to be associated with on-target effect PI3K inhibition on immune cells.

[2] = Plasma half-life; format: in vivo; conditions: human, oral, healthy volunteers and patients with B-cell malignancies
Source text: It is known that administration of an oral drug over a period equivalent to approximately 7 half-lives is necessary to achieve steady state plasma concentrations required for optimal antitumor activity, and that a period of approximately 7 half-lives is needed to clear a drug from the plasma after treatment interruption. TREGs repopulation occurs approximately 14 days after the administration of a single dose of the anti-CD25 immunotoxin denileukin diftitox (ONTAK®), a drug known to suppress TREGs. Therefore, it was hypothesized that administration of Compound A35 at 60 mg/day for 7 consecutive days will result in steady-state plasma concentrations sufficient to inhibit PI3K5 in target malignant B-cells and that 21 days without treatment will be sufficient to repopulate TREGs, which comprises 7 days to clear Compound A35 from the plasma (˜7 half-lives) and 14 days for reconstitution of TREGs after Compound A35 is cleared from the plasma.

[3] = Plasma levels >IC90 and plasma versus tissue levels on intermittent dosing (FIGS. 6A-6B); format: in vivo, human; conditions: FIG. 6A
Source text: There is also evidence pointing to a role for the PI3K pathway in T lymphocytes, which may explain these immune dysregulations. For example, in mice, genetic inactivation of p110δ results in a decrease of the function of regulatory T-cells (TREGs), a subset population of T-cells. […] In some instances, PI3K5 inhibition results in various immune-mediated toxicities such as enterocolitis and skin toxicity due to TREG suppression, as well as infections due to suppression of B-cells and effector T-cells. In some instances, treatment regimens with small molecule PI3K5 delta (or PI3K5) inhibitors on an intermittent dosing schedule (IS) are used. However, in certain instances, progression of disease is observed in subjects who are treated for B-cell malignancies, including chronic lymphocytic leukemia (CLL) and lymphomas with small molecule PI3K5 inhibitors (e.g., parsaclisib (INCB050465)) on an IS dosing regimen (see FIG. 6B). […] In some embodiments, the methods of treatment and dosing regimens and schedules described herein provide an efficacious and tolerable treatment of cancer. In some embodiments, the methods of treatment and dosing regimens and schedules described herein improve the frequency, severity and time to onset of the adverse events (AEs) associated with PI3K delta inhibitors. […]

CN1CCC(c2ccccc2CC(C)(C)Nc2nc(N3CCOCC3)nc(-n3c(C(F)F)nc4ccccc43)n2)CC1 [Compound A35]
AESI ALT/AST increased, All Grades, patients (%) ([1]; CLL/SLL, All (N = 17)): 2 (11.8%)
AESI ALT/AST increased, Related Grade 3, patients (%) ([1]; CLL/SLL, All (N = 17)): 0%
AESI Diarrhea/colitis, All Grades, patients (%) ([1]; CLL/SLL, All (N = 17)): 9 (52.9%)
AESI Diarrhea/colitis, Related Grade 3, patients (%) ([1]; CLL/SLL, All (N = 17)): 4 (23.5%)
AESI Mucositis, All Grades, patients (%) ([1]; CLL/SLL, All (N = 17)): 1 (5.9%)
AESI Mucositis, Related Grade 3, patients (%) ([1]; CLL/SLL, All (N = 17)): 0%
AESI Pneumonia/Pneumonitis, All Grades, patients (%) ([1]; CLL/SLL, All (N = 17)): 3 (17.6%)
AESI Pneumonia/Pneumonitis, Related Grade 3, patients (%) ([1]; CLL/SLL, All (N = 17)): 3 (17.6%)
AESI Rash, all types, All Grades, patients (%) ([1]; CLL/SLL, All (N = 17)): 6 (35.3%)
AESI Rash, all types, Related Grade 3, patients (%) ([1]; CLL/SLL, All (N = 17)): 0%
AESI ALT/AST increased, All Grades, patients (%) ([1]; CLL/SLL, CS Group (N = 9)): 2 (22.2%)
AESI ALT/AST increased, Related Grade 3, patients (%) ([1]; CLL/SLL, CS Group (N = 9)): 0%
AESI Diarrhea/colitis, All Grades, patients (%) ([1]; CLL/SLL, CS Group (N = 9)): 6 (66.7%)
AESI Diarrhea/colitis, Related Grade 3, patients (%) ([1]; CLL/SLL, CS Group (N = 9)): 3 (33.3%)
AESI Mucositis, All Grades, patients (%) ([1]; CLL/SLL, CS Group (N = 9)): 1 (11.1%)
AESI Mucositis, Related Grade 3, patients (%) ([1]; CLL/SLL, CS Group (N = 9)): 0%
AESI Pneumonia/Pneumonitis, All Grades, patients (%) ([1]; CLL/SLL, CS Group (N = 9)): 3 (33.3%)
AESI Pneumonia/Pneumonitis, Related Grade 3, patients (%) ([1]; CLL/SLL, CS Group (N = 9)): 3 (33.3%)
AESI Rash, all types, All Grades, patients (%) ([1]; CLL/SLL, CS Group (N = 9)): 4 (44.0%)
AESI Rash, all types, Related Grade 3, patients (%) ([1]; CLL/SLL, CS Group (N = 9)): 0%
AESI ALT/AST increased, All Grades, patients (%) ([1]; CLL/SLL, IS Group (N = 8)): 0%
AESI ALT/AST increased, Related Grade 3, patients (%) ([1]; CLL/SLL, IS Group (N = 8)): 0%
AESI Diarrhea/colitis, All Grades, patients (%) ([1]; CLL/SLL, IS Group (N = 8)): 3 (37.5%)
AESI Diarrhea/colitis, Related Grade 3, patients (%) ([1]; CLL/SLL, IS Group (N = 8)): 1 (12.5%)
AESI Mucositis, All Grades, patients (%) ([1]; CLL/SLL, IS Group (N = 8)): 0%
AESI Mucositis, Related Grade 3, patients (%) ([1]; CLL/SLL, IS Group (N = 8)): 0%
AESI Pneumonia/Pneumonitis, All Grades, patients (%) ([1]; CLL/SLL, IS Group (N = 8)): 0%
AESI Pneumonia/Pneumonitis, Related Grade 3, patients (%) ([1]; CLL/SLL, IS Group (N = 8)): 0%
AESI Rash, all types, All Grades, patients (%) ([1]; CLL/SLL, IS Group (N = 8)): 2 (25.0%)
AESI Rash, all types, Related Grade 3, patients (%) ([1]; CLL/SLL, IS Group (N = 8)): 0%
AESI ALT/AST increased, All Grades, patients (%) ([1]; FL, All (N = 40)): 9 (22.5%)
AESI ALT/AST increased, Related Grade 3, patients (%) ([1]; FL, All (N = 40)): 3 (7.5%)
AESI Diarrhea/colitis, All Grades, patients (%) ([1]; FL, All (N = 40)): 17 (42.5%)
AESI Diarrhea/colitis, Related Grade 3, patients (%) ([1]; FL, All (N = 40)): 6 (15.0%)
AESI Mucositis, All Grades, patients (%) ([1]; FL, All (N = 40)): 6 (15.0%)
AESI Mucositis, Related Grade 3, patients (%) ([1]; FL, All (N = 40)): 1 (2.5%)
AESI Pneumonia/Pneumonitis, All Grades, patients (%) ([1]; FL, All (N = 40)): 2 (5.0%)
AESI Pneumonia/Pneumonitis, Related Grade 3, patients (%) ([1]; FL, All (N = 40)): 2 (5.0%)
AESI Rash, all types, All Grades, patients (%) ([1]; FL, All (N = 40)): 12 (30.0%)
AESI Rash, all types, Related Grade 3, patients (%) ([1]; FL, All (N = 40)): 4 (10.0%)
AESI ALT/AST increased, All Grades, patients (%) ([1]; FL, CS Group (N = 25)): 6 (24.0%)
AESI ALT/AST increased, Related Grade 3, patients (%) ([1]; FL, CS Group (N = 25)): 3 (12.0%)
AESI Diarrhea/colitis, All Grades, patients (%) ([1]; FL, CS Group (N = 25)): 10 (40.0%)
AESI Diarrhea/colitis, Related Grade 3, patients (%) ([1]; FL, CS Group (N = 25)): 5 (20.0%)
AESI Mucositis, All Grades, patients (%) ([1]; FL, CS Group (N = 25)): 6 (24.0%)
AESI Mucositis, Related Grade 3, patients (%) ([1]; FL, CS Group (N = 25)): 1 (4.0%)
AESI Pneumonia/Pneumonitis, All Grades, patients (%) ([1]; FL, CS Group (N = 25)): 2 (8.0%)
AESI Pneumonia/Pneumonitis, Related Grade 3, patients (%) ([1]; FL, CS Group (N = 25)): 2 (8.0%)
AESI Rash, all types, All Grades, patients (%) ([1]; FL, CS Group (N = 25)): 11 (44.0%)
AESI Rash, all types, Related Grade 3, patients (%) ([1]; FL, CS Group (N = 25)): 4 (16.0%)
AESI ALT/AST increased, All Grades, patients (%) ([1]; FL, IS Group (N = 15)): 3 (20.0%)
AESI ALT/AST increased, Related Grade 3, patients (%) ([1]; FL, IS Group (N = 15)): 0%
AESI Diarrhea/colitis, Related Grade 3, patients (%) ([1]; FL, IS Group (N = 15)): 1 (6.7%)
AESI Mucositis, All Grades, patients (%) ([1]; FL, IS Group (N = 15)): 0%
AESI Mucositis, Related Grade 3, patients (%) ([1]; FL, IS Group (N = 15)): 0%
AESI Pneumonia/Pneumonitis, All Grades, patients (%) ([1]; FL, IS Group (N = 15)): 0%
AESI Pneumonia/Pneumonitis, Related Grade 3, patients (%) ([1]; FL, IS Group (N = 15)): 0%
AESI Rash, all types, All Grades, patients (%) ([1]; FL, IS Group (N = 15)): 1 (6.7%)
AESI Rash, all types, Related Grade 3, patients (%) ([1]; FL, IS Group (N = 15)): 0%
AESI Diarrhea/colitis, All Grades, patients (%) ([1]; FL, IS Group (N = 15), excluded 1 subject with diarrhea after POD and 1 with diarrhea lasting one day with no dose change): 7 (46.7%)*
immune-mediated toxicities with IS administration ([1]; IS versus CS): reduces the incidence of or delayed onset of immune-mediated toxicities
period of CS dosing before onset of severe immune-related toxicities ([1]; Phase 1b study, patients with B-cell malignancies, CS dosing): greater than 2 cycles
half-life [2]: ~28 h
plasma levels versus tissue levels [3]: plasma levels underestimate tissue levels
